Test results: patent US20220073470A1, “INHIBITORS OF CGAS ACTIVITY AS THERAPEUTIC AGENTS” (BELLBROOK LABS, LLC, priority 2019, published 2022)
Converted amounts (≈) assume the structure as drawn. Like-named read-outs stand apart in the source and are kept apart here.

Key:
[1] = Solubility Ksol in PBS pH 7.4; assay type: physicochemical; conditions: pH 7.4, aqueous buffer, kinetic from dmso stock
Mouse cGAS = Mouse cGAS (Mus musculus, UniProt Q8C6L5); experiment: cGAS enzymatic assay with mouse cGAS; assay type: biochemical
Protocol: (§1) Potency and MOA studies, including Mn^2+ sensitivity, are performed using the cGAS enzymatic assay. Dose response experiments are used to determine IC50 values under basal conditions (5 mM MgCl2, 100 μM ATP/GTP), and with the addition of physiological levels of Mn (0.2 mM) using human and mouse cGAS. Ligand optimization is driven by potency with the human enzyme; potency with mouse cGAS informs selection of an appropriate disease model for efficacy studies. Competition with ATP and GTP is assessed by comparing basal IC50 values to those in the presence of saturating ATP or GTP, and subsequently confirmed by measuring velocity vs. substrate at varying ATP or GTP levels. Inhibitor residence times (1/koff) are used as a key parameter for prioritizing compounds and driving SAR, because a longer residence time often results from an allosteric mechanism, and can also correlate with improved cellular activity. The cGAS enzymatic assay is used with the jump dilution method to measure residence times (inhibitor dissociation rates), as described for kinases using the very similar ADP assay. Biophysical methods, including SPR and TSAn, are used as orthologous methods for residence time measurements and kd estimates.

[2] = test system: NFκB-driven transcription; experiment: NFκB-SEAP reporter, THP1 dual-cell reporter system; assay type: cell-based; conditions: Homo sapiens, THP-1; read-out: Cellular NFκB-SEAP
Description: (§2) FIG. 4 includes a schematic showing the THP1 dual-cell reporter system: secreted luciferase reports on IRF3-driven transcription; secreted alkaline phosphatase reports on NFκB-driven transcription, both downstream of cGAS/STING.

cGAS = cGAS (Homo sapiens, UniProt Q8N884); experiment: SPR binding to cGAS; conditions: enzymatic analysis and biophysical binding studies (SPR, TSA)
Description: Following confirmation of hits at three concentrations and removal of compounds with visually evident reactivity or metabolic liabilities, non-stoichiometric inhibitors, aggregators, DNA intercalators and redox-active compounds were triaged using established assays. Initial SAR based on more than 100 commercially available analogs provided additional confidence that the compounds of the disclosure were bonafide inhibitors, and informed potential scaffold hops and toleration for modifications. The compounds of formula (I) of the disclosure were selected for advancement into a hit-to-lead study. […] The compounds of formula (I) of the disclosure are competitive with GTP and its potency is enhanced in the presence of Mn^2+.
Potency and MOA studies, including Mn^2+ sensitivity, are performed using the cGAS enzymatic assay. Dose response experiments are used to determine IC50 values under basal conditions (5 mM MgCl2, 100 μM ATP/GTP), and with the addition of physiological levels of Mn (0.2 mM) using human and mouse cGAS. Ligand optimization is driven by potency with the human enzyme; potency with mouse cGAS informs selection of an appropriate disease model for efficacy studies. Competition with ATP and GTP is assessed by comparing basal IC50 values to those in the presence of saturating ATP or GTP, and subsequently confirmed by measuring velocity vs. substrate at varying ATP or GTP levels. […]

[3] = test system: kinases (Abl1, PKA, TBK1), GTPase (Rac1), phosphodiesterase (PDE4A), ENPP1; experiment: Selectivity panel of nucleotide-utilizing enzymes; assay type: biochemical
Protocol: The compounds of formula (I) of the disclosure were tested for improved potency and other drug-like properties.
A panel of nucleotide-utilizing enzymes that included kinases (Abl1, PKA, TBK1—which transduces cGAS/STING signals, see FIG. 4) a GTPase (Rac1), a phosphodiesterase (PDE4A), and ENPP1, a nucleotidase that degrades cGAMP, was used preliminarily. cGAS assays were used to perform dose response measurements with cGAS inhibitors. In addition to these enzymes, inhibitors are tested with three other members of the oligoadenylate synthases (OAS), nucleic acid sensors that activate innate immunity via production of short, 2′-5′ oligoadenylate second messengers. Methods for expression and purification of the human and/or porcine enzymes in E. coli or baculovirus-infected insect cells have been developed as well as a simple, absorbance-based assay using commercially available pyrophosphate kit. In addition, an FP-based assay (competitive displacement of a fluor-cGAMP tracer) is developed to test compounds as ligands for STING.

[4] = Human microsomal stability (NADPH); assay type: in vitro ADME; conditions: liver microsomes, read-out: Human MS Stability (NADPH) t1/2
Protocol: (§3) Compounds are tested in Caco-2 and MDR1-MDCK permeability assays to provide a measure of intestinal absorption, blood-brain-permeability and efflux by P-glycoprotein (P-gp), a frequent obstacle to effective CNS delivery. CNS drugs are associated with high passive membrane permeability (Papp>1×10^−6 cm/sec) and have low efflux ratios (Papp(B−A)/Papp(A−B)<2.5). Metabolic stability is tested using mouse and human liver microsomes incubated with NADPH for CYP-dependent metabolism and with UDPGA for glucuronidation. Compounds are tested for pharmacokinetics and brain penetration in mice using oral, intravenous and intraperitoneal administration.

[5] = test system: IRF3-driven transcription; experiment: IRF3-Luc reporter, THP1 dual-cell reporter system; assay type: cell-based; conditions: Homo sapiens, THP-1; read-out: Cellular IRF3-Luc
Description: as §2

P-glycoprotein (MDR1) = experiment: MDCK-MDR permeability and efflux; assay type: in vitro ADME, Canine; conditions: dog, MDCK-MDR1
Protocol: as §3

[6] = test system: Madin-Darby Canine Kidney cells-Multi Drug Resistance pump; experiment: MDCK-MDR permeability and efflux; assay type: in vitro ADME
Protocol: as §3

ISG mRNA expression = ISG mRNA expression in THP1-dual cells; assay type: cell-based
Protocol: (§4) FIG. 5A illustrates activity of IFNβ expression of compound 14 in three different experiments. FIG. 5B illustrates the ISG mRNA expression of compound 14 in THP1-dual cells. Compound 14 in concentration of 200 μM was evaluated after 24 hours.
(§5) Cellular activity of several compounds of formula (I) was assessed in […]. For example, FIG. 5A illustrates activity of IFNβ expression, and FIG. 5B illustrates the ISG mRNA expression of compound 14 in THP1-dual cells.

full-length human cGAS = biological target: T1, full-length human cGAS (Homo sapiens, UniProt Q8N884); experiment: cGAS enzymatic assay (FP readout), inhibition of cGAS; assay type: biochemical
T1 construct: The cGAS assay was used to screen 100,000 compounds with full-length human cGAS; 6xHis; made in house
Protocol: Some exemplary compounds of the disclosure were tested for inhibition of cGAS (30 nM). The results are provided in Table 1 where “A” indicates an IC50 of less than 100 nM, “B” indicates an IC50 of greater than 100 nM and less than 500 nM, “C” indicates an IC50 of greater than 500 nM and less than 1 μM, “D” indicates an IC50 of greater than 1 μM and less than 10 μM, and “E” indicates an IC50 of greater than 10 μM.
A homogenous cGAS enzymatic assay was developed with fluorescence polarization (FP) and time-resolved Forster resonance energy transfer (TR-FRET) readouts (FIG. 2A-D). The cGAS assay was used to screen 100,000 compounds with full-length human cGAS (FIG. 2E), resulting in the identification of novel chemotypes, two of which are further developed in a structure-driven hit-to-lead study (Table 3, below). The assay performance was robust, as indicated by respective Z and Z′ values of 0.59 and 0.63 in the screen; compounds with polarization values greater than three SDs from the mean were considered hits; a scatterplot from 10 plates (3,200 compounds) is shown in FIG. 2D.
as §1

[7] = test system: DNA-stimulated IFNβ expression; experiment: IFNβ ELISA, DNA-stimulated IFNβ expression; assay type: cell-based
Protocol: as §4, §5

[8] = Mouse microsomal stability (NADPH); assay type: in vitro ADME; conditions: liver microsomes, read-out: Mouse MS Stability (NADPH) t1/2
Protocol: as §3

T1 sequence (Q8N884 whole entry): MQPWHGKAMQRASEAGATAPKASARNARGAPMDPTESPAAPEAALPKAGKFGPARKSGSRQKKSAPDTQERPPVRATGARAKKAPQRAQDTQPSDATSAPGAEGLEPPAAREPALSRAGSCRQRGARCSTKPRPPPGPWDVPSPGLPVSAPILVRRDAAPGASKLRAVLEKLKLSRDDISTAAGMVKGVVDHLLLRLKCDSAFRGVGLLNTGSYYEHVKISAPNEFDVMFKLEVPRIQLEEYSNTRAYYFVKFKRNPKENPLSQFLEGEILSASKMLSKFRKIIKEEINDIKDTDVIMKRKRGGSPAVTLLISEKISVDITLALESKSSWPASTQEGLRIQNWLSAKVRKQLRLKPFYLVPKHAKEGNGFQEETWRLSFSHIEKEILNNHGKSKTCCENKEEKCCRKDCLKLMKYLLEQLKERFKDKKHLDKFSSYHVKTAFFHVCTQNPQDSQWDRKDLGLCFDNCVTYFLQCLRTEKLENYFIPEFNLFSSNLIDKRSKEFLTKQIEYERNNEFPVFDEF
Chain of cGAS (Q8N884 whole entry): as above
Chain of Mouse cGAS (Q8C6L5 whole entry): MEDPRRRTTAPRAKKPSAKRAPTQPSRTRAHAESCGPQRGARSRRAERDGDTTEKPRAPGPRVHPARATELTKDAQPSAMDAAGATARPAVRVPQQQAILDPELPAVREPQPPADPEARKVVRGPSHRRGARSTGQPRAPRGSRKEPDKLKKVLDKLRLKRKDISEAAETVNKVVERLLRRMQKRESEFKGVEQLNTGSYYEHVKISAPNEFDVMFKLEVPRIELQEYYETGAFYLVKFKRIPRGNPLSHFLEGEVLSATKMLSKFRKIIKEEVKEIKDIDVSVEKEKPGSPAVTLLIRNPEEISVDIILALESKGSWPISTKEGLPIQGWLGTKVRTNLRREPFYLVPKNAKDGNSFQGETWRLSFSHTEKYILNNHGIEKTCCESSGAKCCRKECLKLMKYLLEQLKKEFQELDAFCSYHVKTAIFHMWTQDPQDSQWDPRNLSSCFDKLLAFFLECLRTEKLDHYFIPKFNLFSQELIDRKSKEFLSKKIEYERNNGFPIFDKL

## COc1cc2c(-n3ccnc3)ccnc2cc1Cl [Compound 14, 7-chloro-4-(1H-imidazol-1-yl)-6-methoxyquinoline]
[1]
  solubility: 224 µM (≈ 58.2 µg/mL)
Mouse cGAS
  IC50: 93 nM
[2]
  IC50: 59000 nM
cGAS
  Binding stoichiometry to cGAS: Stoichiometric binding (1:1)
[3]
  Off-Target Activity (Kinase, PDE, GTPase, ENPP1): None
[3]; at 200 μM, kinases, a GTPase, a phosphodiesterase, a nucleotidase
  Inhibitory activity with panel of nucleotide-utilizing enzymes: lack of inhibitory activity
[4]
  half-life: 1.93 h
[5]
  IC50: 75000 nM
P-glycoprotein (MDR1)
  efflux ratio: 0.5
P-glycoprotein (MDR1); A→B
  Papp A→B: 76.7 ×10⁻⁶ cm/s
[6]
  MDR-1-mediated export: no indication of MDR-1-mediated export
ISG mRNA expression
  ISG expression: inhibition
ISG mRNA expression; 200 μM, THP1-dual cells, 24 hours
  ISG expression (fold decrease @ 200 μM): 2-10×
full-length human cGAS; 100 μM ATP/GTP, read-out: Enzymatic FP Std (100 μM ATP/GTP)
  IC50: 391 nM
full-length human cGAS; 1 mM ATP/GTP, read-out: Enzymatic FP Physiological (1 mM ATP/GTP)
  IC50: 1920 nM
full-length human cGAS; 5 mM Mg2+, 0.2 mM Mn2+, read-out: IC50 (5 mM Mg^2+, 0.2 mM Mn^2+)
  IC50: 48 ± 2 nM
full-length human cGAS; 5 mM Mg2+, no Mn2+, read-out: IC50 (5 mM Mg^2+)
  IC50: 550 ± 10 nM
full-length human cGAS; cGAS (30 nM), no Mn2+, read-out: Inhibition cGAS (IC50 class)
  IC50: 500 to 1000 nM
full-length human cGAS; cGAS (30 nM), with Mn2+, read-out: Inhibition cGAS + Mn^2+ (IC50 class)
  IC50: < 100 nM
full-length human cGAS; competition with substrates
  MOA: GTP Competitive
[7]
  DNA-stimulated IFNβ expression as measured by ELISA: specific inhibition
[7]; read-out: Cellular IFNβ ELISA
  IC50: 68000 nM
[8]
  half-life: 0.355 h
